The structures appear in SMILES notation. ≈ marks a conversion by molar mass, not a printed value.

The subject of test [1] is Vero. The test is described as follows: Cytotoxic effect on host cells during stationary phase of virus in vero cell cultures using MTT method. The format is functional, cell-based. The conditions noted are these: Chlorocebus sabaeus. A general note: Tetrazolium assays rely on reduction of a dye to a coloured formazan, in cell work by metabolically active cells.
Test [2] concerns Vero. The test is described as follows: In vitro anti-vesicular stomatitis virus activity in vero cell cultures. The format is functional. Conditions: Chlorocebus sabaeus, read-out: ED50 (the source's name).
Test [3] relates to Vero. The test is described as follows: Cytotoxic effect on host cells during growth phase of virus in vero cell cultures using MTT method. Conditions: Chlorocebus sabaeus. The format is functional, cell-based.
Test [4] can be described thus: Ratio of cytotoxicity, IC50(growing) to antiviral activity (ED50) was determined. It is filed as functional.

With `C[C@H](O)C1=C[C@@H](n2cnc3c(N)ncnc32)[C@H](O)[C@@H]1O`, the IC50 with Vero [1] was greater than 500 µg/mL; with Vero [3] it was greater than 100 µg/mL. In the test on Vero [2], the EC50 was greater than 100 µg/mL.
Regarding `Nc1nccc2c1ncn2[C@@H]1C=C(CO)[C@@H](O)[C@H]1O`, the 50% inhibitory concentration (IC50) in the test with Vero [1] was greater than 500 µg/mL; in the test with Vero [3], 0.55 µg/mL (≈ 2.1 µM). Also, the EC50 with Vero [2] worked out at 0.24 µg/mL (≈ 0.915 µM). Further, in test [4], the Selectivity index is reported as 2.3.
Consider `C[C@H](O)C1=C[C@@H](n2cnc3c(N)nccc32)[C@H](O)[C@@H]1O`, for which the half-inhibitory concentration (IC50) was greater than 500 µg/mL in the test with Vero [1] and greater than 100 µg/mL with Vero [3]. The EC50 with Vero [2] was greater than 100 µg/mL.
In the case of `C[C@@H](O)C1=C[C@@H](n2cnc3c(N)nccc32)[C@H](O)[C@@H]1O`, the IC50 with Vero [1] was greater than 500 µg/mL; with Vero [3], 12 µg/mL (≈ 43.4 µM). In the test with Vero [2], the EC50 turned out to be 1 µg/mL (≈ 3.62 µM). For the same compound, in test [4], the Selectivity index came to 12.
The like results for `C[C@@H](O)C1=C[C@@H](n2cnc3c(N)ncnc32)[C@H](O)[C@@H]1O` were, in that order, greater than 500 µg/mL, 2.2 µg/mL (≈ 7.93 µM), 0.24 µg/mL (≈ 0.866 µM) and 9.2.
On the same counts, the results for `Nc1ncnc2c1ncn2[C@@H]1C=C(CO)[C@@H](O)[C@H]1O` [NEOPLANOCIN A] are 152 µg/mL (≈ 577 µM), 0.26 µg/mL (≈ 0.988 µM), 0.24 µg/mL (≈ 0.912 µM) and 1.1.

Usually IC50 stands for the midpoint of a concentration-inhibition curve. A higher IC50 goes with weaker potency.

Values taken from ChEMBL document CHEMBL1127251, “New neplanocin analogues. III. 6R-configuration is essential for the antiviral activity of 6-C-methyl-3-deazaneplanocin a's” (Bioorg Med Chem Lett, 1994).
